From ChEMBL document CHEMBL1159361, “(Z)-sarcodictyin A, a new highly cytotoxic diterpenoid from the soft coral Bellonella albiflora” (J Nat Prod, 2003) come the findings set out here.

Values after ≈ are worked out from the molar mass of the structure shown.

The experiment has as its system HeLa. Kind of experiment: Cytotoxicity against human HeLa cells. Type of experiment: functional, cell-based.
In the case of `COC(=O)/C1=C/[C@@H]2[C@@H](C(C)C)CC=C(C)[C@@H]2C[C@H](OC(=O)/C=C\c2cn(C)cn2)[C@]2(C)C=C[C@@]1(O)O2`, the IC50 turned out to be 0.09 µg/mL (≈ 0.181 µM).
`CO[C@]12C=C[C@](C)(O1)[C@@H](OC(=O)/C=C\c1cn(C)cn1)C[C@H]1C(C)=CC[C@H](C(C)C)[C@H]1/C=C\2CO[C@@H]1OC[C@@H](O)[C@@H](O)[C@@H]1OC(C)=O`: the IC50 came out at 0.017 µg/mL (≈ 0.0259 µM).
For the compound `CO[C@]12C=C[C@](C)(O1)[C@@H](OC(=O)/C=C/c1cn(C)cn1)C[C@H]1C(C)=CC[C@H](C(C)C)[C@H]1/C=C\2CO` [ELEUTHEROBIN AGLYCON], inhibition was half-maximal at 0.09 µg/mL (≈ 0.186 µM) (IC50).
`CO[C@]12C=C[C@](C)(O1)[C@@H](OC(=O)/C=C/c1cn(C)cn1)C[C@H]1C(C)=CC[C@H](C(C)C)[C@H]1/C=C\2CO[C@@H]1OC[C@@H](O)[C@@H](O)[C@@H]1OC(C)=O` [ELEUTHEROBIN] showed an IC50 of 0.017 µg/mL (≈ 0.0259 µM). Compared with the last compound, the IC50 is about 5.3-fold lower.
In the case of `CCOC(=O)/C1=C/[C@@H]2[C@@H](C(C)C)CC=C(C)[C@@H]2C[C@H](OC(=O)/C=C/c2cn(C)cn2)[C@]2(C)C=C[C@@]1(O)O2` [SARCODICTYIN B] it was 0.09 µg/mL (≈ 0.176 µM).
